# Results from US20250127700A1, “METHODS OF TREATING HYPERPIGMENTATION DISORDERS” (DermBiont, Inc., priority 2016, published 2025).
# Entries after “also recorded” stand apart in the source; their conditions may differ.
# Experiments:
# Solubility statement = format: physicochemical
# PKC isoform γ = PKC isoform γ (Homo sapiens, UniProt P05129); conditions: Jirousek et al. J Med Chem 1996; cited from earlier work
# C47 BI/6 mice = test: Lightening of regrowing hair pigmentation in depilated mice, topical application; format: in vivo; conditions: 4% HQ; for Average gray value within the hair shafts, awl hairs / Average gray value within the hair shafts, zig-zag hairs: topical daily for 19 days after depilation, scale 0 (white) to 255 (black); for Average gray value within the hair shafts, awl hairs: 100 μm (0.0057%) Bis or ruboxistaurin in DMSO:propylene glycol, control value 181; for Maximum degree of hair lightening, zig-zag hairs below versus above the median gray value: zig-zag (small) hairs, FIG. 3, 0.0057% ruboxistaurin; for Color of zig-zag hairs compared to vehicle control (micrograph): FIG. 1, 100 μm Bis or ruboxistaurin; for Average gray value within the hair shafts, zig-zag hairs: 100 μm (0.0057%) Bis or ruboxistaurin, control 159
# Source text: Briefly, […] mice aged 8-9 weeks (3 per group) were depilated to remove back hairs. These mice have black hair but no melanin pigmentation in the skin. Melanocytes in the hair follicle are responsible for the coat color. […] All compounds and vehicle were applied daily to the depilated areas for 19 days after depilation, i.e. throughout the period during which the new hair shafts are produced following depilation. Representative hairs of each type: guard, awl (large follicles deep in the dermis or subcutaneous follicle), auchene, and zig-zag (smaller follicles set in the more superficial dermis and the most numerous type of coat hairs), were randomly plucked (50/mouse) and photographed under a dissecting microscope. For separate analysis, 20 dark and light hairs from each mouse were subjected to computer assisted analysis of “gray value” for the pixels comprising the hair shaft.
# Average gray value within the hair shafts were determined using ImageJ (NIH) software. The gray value is the sum of the gray values of all the pixels in the hair shaft divided by the number of pixels; and values range from 0 (white, no pigment) to 255 (black).
# To determine the maximum degree of hair lightening (attributable to maximal drug exposure), an additional comparison was made between zig-zag hairs in each group that fell below versus above the median gray value.
# PKC isoform η = PKC isoform η (Homo sapiens, UniProt P24723); conditions: Jirousek et al. J Med Chem 1996; cited from earlier work
# Sequence of PKC isoform η (P24723 whole entry, canonical isoform): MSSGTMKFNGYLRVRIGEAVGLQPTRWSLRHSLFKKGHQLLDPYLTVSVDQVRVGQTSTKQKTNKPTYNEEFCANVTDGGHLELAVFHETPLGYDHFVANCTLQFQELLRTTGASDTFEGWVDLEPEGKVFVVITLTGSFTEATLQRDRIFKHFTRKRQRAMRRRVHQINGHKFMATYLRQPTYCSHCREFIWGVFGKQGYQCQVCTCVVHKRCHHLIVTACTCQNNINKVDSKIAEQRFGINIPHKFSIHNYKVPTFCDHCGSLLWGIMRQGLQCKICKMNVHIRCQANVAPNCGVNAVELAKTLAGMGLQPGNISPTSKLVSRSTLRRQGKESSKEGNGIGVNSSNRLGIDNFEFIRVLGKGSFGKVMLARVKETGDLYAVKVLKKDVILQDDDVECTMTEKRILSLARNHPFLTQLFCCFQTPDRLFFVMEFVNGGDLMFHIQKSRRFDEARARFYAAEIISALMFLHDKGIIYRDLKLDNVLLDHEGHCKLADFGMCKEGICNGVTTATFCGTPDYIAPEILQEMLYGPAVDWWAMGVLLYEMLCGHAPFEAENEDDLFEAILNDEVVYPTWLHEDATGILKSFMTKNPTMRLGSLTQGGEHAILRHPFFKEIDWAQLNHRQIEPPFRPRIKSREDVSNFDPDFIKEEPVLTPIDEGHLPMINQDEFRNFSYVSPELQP
SMILES,Solubility (Solubility statement),IC50 (PKC isoform γ) [nM],"Average gray value within the hair shafts, awl hairs (C47 BI/6 mice)","Maximum degree of hair lightening, zig-zag hairs below versus above the median gray value (C47 BI/6 mice)",Color of zig-zag hairs compared to vehicle control (micrograph) (C47 BI/6 mice),"Average gray value within the hair shafts, zig-zag hairs (C47 BI/6 mice)",IC50 (PKC isoform η) [nM]
"CN(C)CC1CCn2cc(c3ccccc32)C2=C(C(=O)NC2=O)c2cn(c3ccccc23)CCO1 (centres unmarked) [ruboxistaurin, 9-[(dimethylamino)methyl]-6,7,10,11-tetrahydro-9H,18H-5,21:12,17-di(metheno)dibenzo[e,k]pyrrolo[3,4-h][1,2,13]oxadiazacyclohexadecine-18,20-dione]",poorly soluble,300,155,lighter than both control and 4% HQ hairs,significantly lighter; also recorded: lightest,134,52
"Oc1ccc(O)cc1 [HQ, hydroquinone]",,,168,minimally lighter than control hairs,minimal color difference,156,
